Test results published in ChEMBL document CHEMBL1201862, “PubChem BioAssay data set” (2004).
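Cells were grown in 96-well plates and exposed to each compound for 48 hours at five concentrations; endpoints were interpolated linearly between bracketing concentrations, or set to the highest concentration if not reached. GI50 = concentration required for 50% inhibition of growth.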 The source made the active and inactive calls. No stated cut-off is given here; in the data, active = GI50 up to about 1.1 µM and inactive = higher.

What was measured:
Test in all cases: NCI anticancer screen, dose series, 48 h
A549 = tested on: A549
ACHN = tested on: ACHN
CAKI-1 = tested on: CAKI-1
COLO 205 = tested on: COLO 205
EKVX = tested on: EKVX
HCC 2998 = tested on: HCC 2998
HCT-116 = tested on: HCT-116
HCT-15 = tested on: HCT-15
HL-60 = tested on: HL-60
HOP-62 = tested on: HOP-62
HOP-92 = tested on: HOP-92
HT-29 = tested on: HT-29
IGROV-1 = tested on: IGROV-1
KM-20L2 = tested on: KM-20L2
KM12 = tested on: KM12
LOX IMVI = tested on: LOX IMVI
M14 = tested on: M14
MOLT-4 = tested on: MOLT-4
Malme-3M = tested on: Malme-3M
NCI-H226 = tested on: NCI-H226
NCI-H23 = tested on: NCI-H23
NCI-H460 = tested on: NCI-H460
NCI-H522 = tested on: NCI-H522
OVCAR-3 = tested on: OVCAR-3
OVCAR-4 = tested on: OVCAR-4
OVCAR-5 = tested on: OVCAR-5
OVCAR-8 = tested on: OVCAR-8
RXF 393 = tested on: RXF 393
SF-268 = tested on: SF-268
SF-295 = tested on: SF-295
SF-539 = tested on: SF-539
SK-MEL-28 = tested on: SK-MEL-28
SK-MEL-2 = tested on: SK-MEL-2
SK-MEL-5 = tested on: SK-MEL-5
SK-OV-3 = tested on: SK-OV-3
SNB-19 = tested on: SNB-19
SNB-75 = tested on: SNB-75
SR = tested on: SR
SW-620 = tested on: SW-620
TK-10 = tested on: TK-10
U-251 = tested on: U-251
UACC-257 = tested on: UACC-257
UACC-62 = tested on: UACC-62
UO-31 = tested on: UO-31

Structure (SMILES): O=C(N/N=C/c1cc(Br)cc(Br)c1O)c1ccccc1O
- GI50 (A549): 1100 nM (active)
- GI50 (ACHN): 436 nM (active)
- GI50 (CAKI-1): 800 nM (active)
- GI50 (COLO 205): 3340 nM (inactive)
- GI50 (EKVX): 1180 nM (inactive)
- GI50 (HCC 2998): 1030 nM (active)
- GI50 (HCT-116): 1820 nM (inactive)
- GI50 (HCT-15): 422 nM
- GI50 (HL-60): 150 nM (active)
- GI50 (HOP-62): 832 nM (active)
- GI50 (HOP-92): 1200 nM (inactive)
- GI50 (HT-29): 3380 nM (inactive)
- GI50 (IGROV-1): 867 nM (active)
- GI50 (KM-20L2): 2000 nM (inactive)
- GI50 (KM12): 1430 nM (inactive)
- GI50 (LOX IMVI): 399 nM (active)
- GI50 (M14): 687 nM (active)
- GI50 (MOLT-4): 575 nM (active)
- GI50 (Malme-3M): 1560 nM (inactive)
- GI50 (NCI-H226): 320 nM (active)
- GI50 (NCI-H23): 520 nM (active)
- GI50 (NCI-H460): 640 nM (active)
- GI50 (NCI-H522): 311 nM (active)
- GI50 (OVCAR-3): 273 nM (active)
- GI50 (OVCAR-4): 267 nM (active)
- GI50 (OVCAR-5): 723 nM (active)
- GI50 (OVCAR-8): 463 nM (active)
- GI50 (RXF 393): 929 nM (active)
- GI50 (SF-268): 469 nM (active)
- GI50 (SF-295): 900 nM (active)
- GI50 (SF-539): 610 nM (active)
- GI50 (SK-MEL-28): 708 nM (active)
- GI50 (SK-MEL-2): 433 nM (active)
- GI50 (SK-MEL-5): 1070 nM (active)
- GI50 (SK-OV-3): 1060 nM (active)
- GI50 (SNB-19): 912 nM (active)
- GI50 (SNB-75): 3660 nM (inactive)
- GI50 (SR): 258 nM (active)
- GI50 (SW-620): 773 nM (active)
- GI50 (TK-10): 944 nM (active)
- GI50 (U-251): 399 nM (active)
- GI50 (UACC-257): 2260 nM (inactive)
- GI50 (UACC-62): 368 nM (active)
- GI50 (UO-31): 695 nM (active)
